Data as given in ChEMBL document CHEMBL1201862, “PubChem BioAssay data set” (2004).
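Tested at 5 concentrations; 48 h exposure; 96-well plates; endpoints linearly interpolated, else capped at highest concentration. Here, GI50 denotes the concentration required for 50% inhibition of growth.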 The source made the active and inactive calls. Rule as the data show it: active = GI50 up to about 1.1 µM and inactive = higher.

Tests used:
Assay in all cases: NCI-60 cell line screen, 48 h
OVCAR-4 = system: OVCAR-4
Malme-3M = system: Malme-3M
HCC 2998 = system: HCC 2998
SF-268 = system: SF-268
HCT-116 = system: HCT-116
NCI-H522 = system: NCI-H522
SF-295 = system: SF-295
A549 = system: A549
NCI-H23 = system: NCI-H23
HL-60 = system: HL-60
SK-MEL-28 = system: SK-MEL-28
DMS-114 = system: DMS-114
SNB-19 = system: SNB-19
CCRF-CEM = system: CCRF-CEM
UO-31 = system: UO-31
EKVX = system: EKVX

Measured: GI50

CC(C)c1ccc2c(c1)CCC1C(C)(C)[C@@H](O)CC[C@]21C (stereo partly specified)
inactive: OVCAR-4 56.8 µM | Malme-3M 17 µM | HCC 2998 24.8 µM | SF-268 39 µM | HCT-116 18.5 µM | NCI-H522 25 µM | SF-295 18.3 µM | A549 30.6 µM | NCI-H23 29.8 µM | HL-60 17.7 µM | SK-MEL-28 44.5 µM | DMS-114 34.8 µM | SNB-19 52.4 µM | CCRF-CEM 27.9 µM | UO-31 69.5 µM

Cc1nc(Nc2ccc([N+](=O)[O-])cc2)sc1C(=O)/C=C/c1ccc(N(C)C)cc1
inactive: EKVX 52.5 µM | Malme-3M > 100 µM | HCC 2998 78.3 µM | SF-268 > 100 µM | NCI-H522 19.4 µM | SF-295 40.1 µM | A549 40.7 µM | NCI-H23 > 100 µM | HL-60 76.7 µM | SK-MEL-28 > 100 µM | DMS-114 59.4 µM | SNB-19 > 100 µM | CCRF-CEM 60.1 µM | UO-31 36.8 µM

Nc1ccc2c(c1)Oc1c(F)c(F)cc3c(=O)c(C(=O)O)cn-2c13
inactive: OVCAR-4 40.1 µM | EKVX > 100 µM | Malme-3M 45.9 µM | HCC 2998 > 100 µM | SF-268 > 10 µM | HCT-116 24.2 µM | NCI-H522 29.9 µM | A549 32.9 µM | NCI-H23 64.1 µM | HL-60 38.9 µM | SK-MEL-28 40.3 µM | DMS-114 > 100 µM | SNB-19 35.2 µM | CCRF-CEM 33 µM | UO-31 27.3 µM

C=C1c2[nH]c3ccccc3c2CC(C(=O)O)N1C(O)c1ccc(S(=O)(=O)O)cc1 (stereo unspecified)
inactive: OVCAR-4 > 100 µM | Malme-3M > 100 µM | HCC 2998 > 100 µM | SF-268 > 100 µM | HCT-116 > 100 µM | NCI-H522 > 100 µM | SF-295 > 100 µM | A549 > 100 µM | NCI-H23 > 100 µM | HL-60 > 100 µM | SK-MEL-28 > 100 µM | DMS-114 > 100 µM | SNB-19 > 100 µM | CCRF-CEM > 100 µM | UO-31 > 100 µM

COc1cccc2c1C(=O)C1(O)CCCCC21 (stereo unspecified)
inactive: OVCAR-4 > 100 µM | Malme-3M > 100 µM | HCC 2998 > 100 µM | SF-268 > 100 µM | HCT-116 > 100 µM | NCI-H522 > 100 µM | SF-295 > 100 µM | A549 > 100 µM | NCI-H23 > 100 µM | HL-60 > 100 µM | SK-MEL-28 > 100 µM | DMS-114 > 100 µM | SNB-19 > 100 µM | CCRF-CEM > 100 µM | UO-31 > 100 µM

Cc1c(C(Cc2ccccc2N(C)C(=O)/C=C\C(=O)O)c2c[nH]c3ccccc23)c2ccccc2n1C (stereo unspecified)
inactive: OVCAR-4 22.5 µM | EKVX 16.3 µM | Malme-3M 6.14 µM | HCC 2998 16.3 µM | SF-268 20.6 µM | HCT-116 15.1 µM | NCI-H522 15.1 µM | SF-295 14.5 µM | A549 16.6 µM | NCI-H23 16.8 µM | HL-60 4.66 µM | DMS-114 14.2 µM | SNB-19 18 µM | CCRF-CEM 14.9 µM | UO-31 14.5 µM

Clc1ccccc1C1=NN(c2ccccc2)C2c3ccccc3OCC12 (stereo unspecified)
inactive: EKVX > 100 µM | Malme-3M > 100 µM | HCC 2998 > 100 µM | SF-268 > 100 µM | HCT-116 43.3 µM | NCI-H522 > 100 µM | SF-295 79.6 µM | A549 > 100 µM | NCI-H23 > 100 µM | HL-60 41.6 µM | SK-MEL-28 > 100 µM | DMS-114 > 100 µM | SNB-19 > 100 µM | CCRF-CEM 64.9 µM | UO-31 > 100 µM

[N-]=[N+]=NC(c1cn(C2CC(O)C(CO)O2)c(=O)[nH]c1=O)C(Cl)Br (stereo unspecified)
inactive: EKVX > 100 µM | Malme-3M > 100 µM | HCC 2998 > 100 µM | HCT-116 > 100 µM | NCI-H522 > 100 µM | SF-295 > 100 µM | A549 > 100 µM | NCI-H23 > 100 µM | HL-60 > 100 µM | SK-MEL-28 > 100 µM | DMS-114 > 100 µM | SNB-19 > 100 µM | CCRF-CEM 50.8 µM | UO-31 > 100 µM

O=C1C2=C(CCCC2)Nc2cccc3ncn1c23
inactive: EKVX > 100 µM | Malme-3M > 100 µM | HCC 2998 > 100 µM | SF-268 > 100 µM | HCT-116 > 100 µM | NCI-H522 > 100 µM | SF-295 > 100 µM | A549 > 100 µM | NCI-H23 > 100 µM | HL-60 > 100 µM | SK-MEL-28 > 100 µM | DMS-114 > 100 µM | SNB-19 > 100 µM | CCRF-CEM > 100 µM | UO-31 > 100 µM

COP1(=O)CC2C(Cl)(Cl)C2(C)C1 (stereo unspecified)
inactive: OVCAR-4 > 100 µM | HCC 2998 > 100 µM | SF-268 > 100 µM | HCT-116 > 100 µM | NCI-H522 > 100 µM | SF-295 > 100 µM | A549 > 100 µM | NCI-H23 > 100 µM | HL-60 > 100 µM | SK-MEL-28 > 100 µM | DMS-114 > 100 µM | SNB-19 > 100 µM | CCRF-CEM > 100 µM
